Laboratory results from patent US11800869B2, “Use of 6-oxo-1,4,5,6-tetrahydropyridazine-3-carboxylic acid, 1-methyl 6-oxo-1,4,5,6-tetrahydropyridazine-3-carboxylic acid and 1-alkyl-6-oxo-1,4,5,6-tetrahydropyridazine-3-carboxylic acid for improving growth performance in plants” (Advanced Crop Chem LLP, priority 2020, dated 2023).
Marks after values point to notes of the source that are not given here.

Tests used:
Type in all cases: in vivo
Wheat seeds = assay: Wheat seed treatment, germination paper, shoot and root fresh weights (Example 9); details: pH 5.7-5.8, germination paper 75-85° F; for Shoot fresh weight: Control 27.4; for Roots fresh weight: Control 29.1
Description: Wheat seeds were treated with 6-oxo-1,4,5,6 tetrahydropyridazine-3-carboxylic acid and the shoot and root fresh weights as shown in Table 1. Shoot and root fresh weights at this stage are components of early seedling emergence which is important for early establishment of a vigorous and productive crop. Wheat seeds were treated with a solution of either 0.1 mM or 0.01 mM 6-oxo-1,4,5,6 tetrahydropyridazine-3-carboxylic acid in an aqueous solution at pH 5.7-5.8. The seeds were placed on moist germination paper and allowed to germinate at 75-85° F. The control seeds were imbibed in aqueous solution containing only the soft soap and glycerol.

[1] = test system: Winter wheat variety AWC 13; assay: Wheat seed treatment, field grown, root biomass (Example 14); details: untreated 0.66
Description: Wheat seeds were treated with 6-oxo-1,4,5,6 tetrahydropyridizine-3-carboxylic acid treated plants to examine the impact on shoot and root biomass for field grown plants. Winter wheat variety AWC 13 seeds were treated with 6-oxo-1,4,5,6-tetrahydropyridazine-3-carboxylic acid and field grown. The plants from seeds treated with 6-oxo-1,4,5,6 tetrahydropyridazine-3-carboxylic acid had larger root biomass (0.85 g dry weight/plant) compared with plants from untreated seeds (0.66 g dry weight/plant).

[2] = test system: Wheat plants (Variety AWC 13); assay: Foliar treatment of wheat, foliar and root dry biomass (Example 5); details: foliar treatment at Zadoks GS 15-20, 30 days after application, mean of 10 plants
From the text: Wheat plants (Variety AWC 13) were given a foliar treatment of 6-oxo-1,4,5,6-tetrahydropyridazine-3-carboxylic acid(THP) or 1-methyl 6-oxo-1,4,5,6 tetrahydropyridazine-3-carboxylic acid (MTHP) and their foliar and root dry biomass determined 30 days after application. The foliar applications were applied at approximately at Zadoks GS 15-20 (see FIG. 1) and assessed 30 days later at Zadoks GS 22-24 (also shown in FIG. 1).

[3] = test system: Field grown wheat plants (Var: AWC 13); assay: Foliar treatment of field grown wheat (Example 6); details: foliar treatment at Zadoks GS 25-26, 100 g in 200 L water, mean of 10 plants
Description: (§1) Field grown wheat plants (Var: AWC 13) were given foliar treatment at Zadoks GS 25-26 (FIG. 1) of 6-oxo-1,4,5,6 tetrahydropyridazine-3-carboxylic acid (THP) or 1-methyl 6-oxo-1,4,5,6 tetrahydropyridazine-3-carboxylic acid (MTHP) both at 100 g in 200 L water plus 0.25% Nouryon wetter. Plants were grown under standard UK wheat growing cultural practice (https://andb.org.uk/wheatgg). Yield was assessed at harvest.

[4] = test system: Soybean seeds, cv. Viking; assay: Soybean seed treatment, root nodulation by Bradyrhizobium japonicum (Example 19); details: seed treatment 0.1 mM; greenhouse 75° F; 4 weeks after planting; untreated 655.8 mg
Description: Soybean seed were treated with 6-oxo-1,4,5,6 tetrahydropyridazine-3-carboxylic acid to examine the effect on root nodulation by a nitrogen fixing bacterium.
Soybean seeds, cv. Viking, were treated with 6-oxo-1,4,5,6 tetrahydropyridazine-3-carboxylic acid (0.1 mM) and the resulting seedlings were grown in a greenhouse at 75° F. under natural light during a winter season. The extent of root nodulation by Bradyrhizobium japonicum, a nitrogen fixing bacterium was determined 4 weeks after planting. Plants from the untreated seeds averaged 655.8 mg of nodules per plant versus 763.7 mg for the plants from treated seeds.

field grown wheat = assay: Field grown wheat plots, foliar treatment, yield (Example 12); details: foliar treatment at Zadocks GS 30
Description: as §1
Nine field grown wheat plots (20 m^2) were established. In each plot, the area was split into two and one half treated with 6-oxo-1,4,5,6 tetrahydropyridazine-3-carboxylic acid (THP) to assess for effects on yield. Plants were treated at Zadocks GS 30 as described in example 6 under standard cultural practices. The average yield response compared to the untreated plants across all sites was 0.596 tons per hectare.

Corn = assay: Seed treatment plus foliar spray, root and shoot biomass and emergence, corn (Example 2)
Description: Winter wheat variety AWC 13 seeds were treated with either 6-oxo-1,4,5,6-tetrahydropyridazine-3-carboxylic acid (THP) or 1-methyl 6-oxo-1,4,5,6 tetrahydropyridazine-3-carboxylic acid (MTHP) at an effective rate of 10g diluted in 2 L water plus 0.25% Nouryon wetter and applied to 1 ton of seed. These seed were planted in coarse river sand and grown in a greenhouse under ambient light at the greenhouse at 21° C. Plants were irrigated every other day with water containing 50% strength Hoaglands solution. Plants were assessed for emergence and biomass accumulation 30 days after planting. The plants from seeds treated with 6-oxo-1,4,5,6-tetrahydropyridizin-3-carboxylic acid or 1-methyl 6-oxo-1,4,5,6 tetrahydropyridazine-3-carboxylic acid had larger root biomasses (0.83, 0.85 g, dry weight/plant) compared with plants from untreated seeds (0.65 g dry weight/plant). Wheat, corn and pepper seeds were treated with 6-oxo-1,4,5,6-tetrahydropyridizine-3-carboxylic acid (THP) using the same methodology and growth conditions as described in example 1 and the resulting plants were also treated with a light foliar cover spray using an electric hand-held sprayer. (100 g in 200 L water plus 0.25% Nouryon wetter) of 6-oxo-1,4,5,6 tetrahydropyridazine-3-carboxylic acid (30 days post emergence (wheat at Zadoks GS 14 (see FIG. 1), maize at V2, Pepper at 3-4 leaf stage) and then assessed for root and shoot biomass 45 days later. At 75 days post planting the plants were assessed for root and shoot biomass as measured with dry weight.

[5] = seed treatment plus foliar spray 100 g in 200 L, 75 days post planting

Compound `O=C1CCC(C(=O)O)=NN1` [THP, 6-oxo-1,4,5,6 tetrahydropyridazine-3-carboxylic acid] has a Shoot fresh weight (Wheat seeds; seed treatment 0.01 mM) of 44.7 mg, a Roots fresh weight (Wheat seeds; seed treatment 0.01 mM) of 48.1 mg and a Shoot fresh weight (Wheat seeds; seed treatment 0.1 mM) of 42.1 mg. The Roots fresh weight (Wheat seeds; seed treatment 0.1 mM) was 43.8 mg, the root biomass [1] was 0.85 g dry weight/plant and the “Dry Weight Shoot” value ([2]; Con 0.47) was 1.01. The “Dry Weight Root” value ([2]; Con 0.65) was 1.5, the “Dry Weight Shoot” value ([3]; Con 0.47) was 1.01 and the “Dry Weight Root” value ([3]; Con 0.65) was 1.5. For the same compound, the nodules per plant [4] was 763.7 mg, the “Yield as Percent Increase over Untreated” value (field grown wheat; Field 1) was 6.25* % and the “Yield as Percent Increase over Untreated” value (field grown wheat; Field 2) was 8.7* %. For the same compound, the “Yield as Percent Increase over Untreated” value (field grown wheat; Field 3) was −0.3%, the “Yield as Percent Increase over Untreated” value (field grown wheat; Field 4) was 13.9* % and the “Yield as Percent Increase over Untreated” value (field grown wheat; Field 5) was 3.0%. The “Yield as Percent Increase over Untreated” value (field grown wheat; Field 6) was 3.3%, the “Yield as Percent Increase over Untreated” value (field grown wheat; Field 7) was 6.5% and the “Yield as Percent Increase over Untreated” value (field grown wheat; Field 8) was 9.8* %. For the same compound, the “Yield as Percent Increase over Untreated” value (field grown wheat; Field 9) was 8.1* %, the “average yield response compared to the untreated plants across all sites” value (field grown wheat; nine field plots) was 0.596 tons per hectare and the “Root Dry Weight, % Difference vs Untreated” value (Corn; [5]) was 8%. The “Shoot Dry Weight, % Difference vs Untreated” value (Corn; [5]) was 3% and the “Emergence, % Difference vs Untreated” value (Corn; seed treatment, % Emergence at 10 days post planting) was 11%.
